Test results taken from PMC8347709 (International Journal of Molecular Sciences, 2021).

biological target: T1, hCB2R (Homo sapiens, UniProt P34972); assay: not given; details: HEK-293 membranes, [3H]CP-55,940; cited from earlier work
T1 sequence (P34972 whole entry): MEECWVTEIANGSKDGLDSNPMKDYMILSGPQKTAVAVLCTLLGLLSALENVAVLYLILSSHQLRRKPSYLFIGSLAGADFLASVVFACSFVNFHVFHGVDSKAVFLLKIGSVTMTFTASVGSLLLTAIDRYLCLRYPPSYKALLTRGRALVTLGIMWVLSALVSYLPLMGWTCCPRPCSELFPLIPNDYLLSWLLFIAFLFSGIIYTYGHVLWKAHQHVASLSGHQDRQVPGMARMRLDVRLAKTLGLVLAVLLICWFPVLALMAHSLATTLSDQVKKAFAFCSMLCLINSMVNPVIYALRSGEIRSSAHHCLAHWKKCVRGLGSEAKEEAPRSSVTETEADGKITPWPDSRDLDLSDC

For CC1CCC(NC(=O)c2cc3cccnc3n(CCCCF)c2=O)CC1 (stereo not shown) [compound 5, 1-(4-Fluorbutyl)-N-(4-methyl)-2-oxo-1,2-dihydro-1,8-naphthyridine-3-carboxamide], the Ki is listed as 1.4 nM.

same assay, conditions: diastereomeric mixture; published value; cited from earlier work

In the case of CC1CCC(NC(=O)c2cc3cccnc3n(CCCCF)c2=O)CC1 (stereo not shown) [compound 5, 1-(4-Fluorbutyl)-N-(4-methyl)-2-oxo-1,2-dihydro-1,8-naphthyridine-3-carboxamide], the Ki is listed as 1.3 nM.

biological target: CB2; assay: not given; parameters: method as in PMID 29921889, PMID 33379862; details: Figure 1; cited from earlier work

Point of comparison: CCOCCn1cc(C(=O)NC23CC4CC(CC(C4)C2)C3)c(=O)c2cccc(OCC[18F])c21 [[^18F]RS-122], Ki 72 nM. Against it:
- Cc1s/c(=N\C(=O)C2C(C)(C)C2(C)C)n(CCO[11CH3])c1C [[^11C]A-836339] — 100-fold lower, 0.7 nM
- CCCCCn1cc(C(=O)NC23CC4CC(CC(C4)C2)C3)c(=O)c2cccc(O[11CH3])c21 [[^11C]KD2] — 42-fold lower, 1.7 nM
- [11CH3]Oc1ccc2ncc(NCCCc3nc(-c4ccc(F)cc4Cl)no3)cc2c1 [[^11C]MA2] — within 1.5-fold, 87 nM
- CCCCOc1c(O[11CH3])ccc2cc(C(=O)NC3CCCCC3)c(=O)[nH]c12 [[^11C]NE40] — 7.5-fold lower, 9.6 nM
- CCOCCn1cc(C(=O)NC23CC4CC(CC(C4)C2)C3)c(=O)c2cccc(O[11CH3])c21 [[^11C]RS-016] — 100-fold lower, 0.7 nM
- CCOC(=O)C(CC)(CC)NC(=O)c1ccc(N2CC(O[11CH3])C2)c(OCC2CC2)n1 [[^11C]RSR-056] — 29-fold lower, 2.5 nM
- CCCCOc1c(OCC[18F])ccc2cc(C(=O)NC3CCCCC3)c(=O)[nH]c12 [[^18F]1] — 2-fold lower, 36 nM
- CCC(CC)(NC(=O)c1ccc(N2CC(OC)C2)c(OCC2CC2)n1)C(=O)OCCC[18F] [[^18F]2] — 12-fold lower, 6 nM
- COc1cccc2c(=O)c(C(=O)NC34CC5CC(CC(C5)C3)C4)cn(CCOCCCC[18F])c12 [[^18F]AH-040] — 80-fold lower, 0.9 nM
- COc1cccc2c(=O)c(C(=O)NC34CC5CC(CC(C5)C3)C4)cn(CCCOCCC[18F])c12 [[^18F]AH-043] — 11-fold lower, 6.3 nM
- Cc1s/c(=N\C(=O)C2C(C)(C)C2(C)C)n(CCOCC[18F])c1C [[^18F]FC024] — 720-fold lower, 0.1 nM
- Cc1s/c(=N\C(=O)C2C(C)(C)C2(C)C)n(CCCC[18F])c1C [[^18F]JHU94620] — 180-fold lower, 0.4 nM
- Fc1ccc(-c2noc(CCCNc3cnc4ccc(OCC[18F])cc4c3)n2)c(Cl)c1 [[^18F]MA3] — 90-fold lower, 0.8 nM
- COc1cccc2c(=O)c(C(=O)NC34CC5CC(CC(C5)C3)C4)cn(CCOCCC[18F])c12 [[^18F]RS-126] — 60-fold lower, 1.2 nM
- [2H]C([2H])([18F])C([2H])([2H])C([2H])([2H])OC(=O)C(CC)(CC)NC(=O)c1ccc(N2CC(OC)C2)c(OCC2CC2)n1 [[^18F]RoSMA-18-d6] — 12-fold lower, 6 nM

biological target: T2, CB2R in rat spleen tissue (Rattus norvegicus, UniProt Q9QZN9); assay: not given; parameters: method as in PMID 27713686; details: previously reported; cited from earlier work
T2 construct: from tissue; host or cells: rat spleen cryosections (female SPRD rat)
T2 sequence (Q9QZN9 1-360): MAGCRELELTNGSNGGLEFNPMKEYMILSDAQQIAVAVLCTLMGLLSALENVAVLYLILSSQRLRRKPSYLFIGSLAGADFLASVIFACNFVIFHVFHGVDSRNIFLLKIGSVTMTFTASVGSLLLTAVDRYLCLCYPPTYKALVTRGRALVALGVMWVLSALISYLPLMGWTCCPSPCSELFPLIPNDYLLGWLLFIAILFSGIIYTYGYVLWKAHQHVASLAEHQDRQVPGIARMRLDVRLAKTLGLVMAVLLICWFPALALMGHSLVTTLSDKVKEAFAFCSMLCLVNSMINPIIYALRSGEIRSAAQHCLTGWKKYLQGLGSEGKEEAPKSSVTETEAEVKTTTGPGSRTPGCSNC

In the case of Fc1ccc(-c2noc(CCCNc3cnc4ccc(OCC[18F])cc4c3)n2)c(Cl)c1 [[^18F]MA3], the “visualisation of CB2 receptors in rodent spleen tissue” value is given as “inability to visualise CB2 receptors in rodent spleen tissue”.

test system: not given; assay: not given; parameters: method as in PMID 30342565, PMID 2173751; details: cited from earlier work

In the case of (−)-Δ9-trans-tetrahydrocannabinol [THC], the LogD7.4 is listed as over 7.

biological target: T1, hCB2R; assay: competitive radioligand displacement with [3H]WIN55212-2 on hCB2-CHO membrane preparations; assay type: binding; parameters: host or cells: CHO cells, stably transfected; details: hCB2-CHO membranes, read-out: Ki(hCB2R)
Source text: In brief, membrane preparations obtained from CHO cell lines stably transfected with either human CB1 (hCB1-CHO; obtained from Euroscreen, Gosselies, Belgium) or human CB2 (hCB2-CHO; obtained from Paul L. Prather, Department of Pharmacology and Toxicology, College of Medicine, University of Arkansas for Medical Sciences, Fayetteville, AR, USA) were used along with [^3H]SR141716A (1554 GBq/mmol; PerkinElmer Life and Analytical Sciences, Rodgau, Germany) and [^3H]WIN55212-2 (6438 GBq/mmol; PerkinElmer Life and Analytical Sciences, Rodgau, Germany), resp., as target-specific radioligands. The incubations were performed in 50 mM TRIS-HCl, pH 7.4, supplemented with 0.1% bovine serum albumin (BSA), 5 mM MgCl2, and 1 mM EDTA for 90 min at room temperature. Various concentrations of test compounds were administered, and the non-specific binding was determined in the presence of 10 μM 56. The values of bound activity were used to determine affinity (Ki) values using non-linear regression analysis (GraphPad Prism 2.01, v9, San Diego, CA, USA) and based on the KD values of [^3H]56 determined by saturation experiments [54].
Human CB2 receptors were expressed in CHO cells, and affinities were determined by competitive radioligand displacement experiments using [^3H]WIN552122. […]

Point of comparison: C[C@H]1CC[C@@H](NC(=O)c2cc3cccnc3n(CCCCF)c2=O)CC1 [cis-5], Ki 6 nM. Against it:
- C[C@H]1CC[C@H](NC(=O)c2cc3cccnc3n(CCCCF)c2=O)CC1 [trans-5] — 8.7-fold higher, 52 nM
